# Laboratory results reported in patent publication US12662490B2, “Heterocyclic compounds” (Hoffmann-La Roche Inc., priority 2019, dated 2026).
# Target: T1, MAGL (Homo sapiens, UniProt Q99685)
# T1 sequence (Q99685 1-303): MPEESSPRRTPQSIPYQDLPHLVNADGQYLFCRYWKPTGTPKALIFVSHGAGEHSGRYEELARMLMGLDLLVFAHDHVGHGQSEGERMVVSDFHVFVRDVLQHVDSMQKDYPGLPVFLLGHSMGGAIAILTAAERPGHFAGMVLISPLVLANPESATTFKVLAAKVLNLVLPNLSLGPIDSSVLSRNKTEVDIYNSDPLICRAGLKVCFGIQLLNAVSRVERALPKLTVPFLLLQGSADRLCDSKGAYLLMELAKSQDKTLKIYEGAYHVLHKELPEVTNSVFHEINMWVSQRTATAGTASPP
# Assay: 2-AG assay (MAGL inhibitory activity; hydrolysis of 2-arachidonoylglycerol to arachidonic acid followed by mass spectrometry)
# Format: biochemical
# Settings: 15 min preincubation at RT, 8 μM 2-arachidonoylglycerol, 30 min at RT, RapidFire MS readout
# Outline: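 Compounds (final 12.5 μM to […], 3-fold steps) preincubated 15 min at RT with MAGL ([…]) in 50 mM TRIS, 1 mM EDTA, Tween buffer. Reaction started with 8 μM 2-arachidonoylglycerol, run 30 min at RT, quenched with ACN containing d8-arachidonic acid. Arachidonic acid quantified by RapidFire SPE-triple quadrupole MS (negative ESI), activity from arachidonic acid/d8 ratio.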
row,IC50,SMILES
1,0.237 µM,"O=C(c1cccc(-c2cocn2)c1Cl)N1CCN2C[C@@](O)(c3ccc(C(F)(F)F)cn3)OC[C@@H]2C1 [Example 86, [(3S,9aS)-3-hydroxy-3-[5-(trifluoromethyl)-2-pyridyl]-1,4,6,7,9,9a-hexahydropyrazino[2,1-c][1,4]oxazin-8-yl]-(2-chloro-3-oxazol-4-yl-phenyl)methanone]"
2,0.983 µM,"COc1cccc(C(=O)N2CCN3C=C(c4nc5ccccc5s4)OCC3C2)c1Cl (centres unmarked) [Example 87, [3-(1,3-benzothiazol-2-yl)-6,7,9,9a-tetrahydro-1H-pyrazino[2,1-c][1,4]oxazin-8-yl]-(2-chloro-3-methoxy-phenyl)methanone]"
3,0.0107 µM,"O=C(c1cccc(-c2c[nH]nc2F)c1Cl)N1CCN2C[C@@](F)(c3ccc(C(F)(F)F)nc3)OC[C@@H]2C1 [Example 88, [2-chloro-3-(3-fluoro-1H-pyrazol-4-yl)phenyl]-[(3S,9aS)-3-fluoro-3-[6-(trifluoromethyl)-3-pyridyl]-1,4,6,7,9,9a-hexahydropyrazino[2,1-c][1,4]oxazin-8-yl]methanone]"
4,2.03 µM,"COc1cccc(C(=O)N2CCN3C[C@@H](c4ccc(C(F)(F)F)nn4)OC[C@@H]3C2)c1Cl [Example 89, (2-chloro-3-methoxy-phenyl)-[(3S,9aS)-3-[6-(trifluoromethyl)pyridazin-3-yl]-3,4,6,7,9,9a-hexahydro-1H-pyrazino[2,1-c][1,4]oxazin-8-yl]methanone]"
5,2.31 µM,"COc1cccc(C(=O)N2CCN3C[C@H](c4cc(Cl)ccn4)OC[C@@H]3C2)c1Cl [Example 90, [(3R,9aS)-3-(4-chloro-2-pyridyl)-3,4,6,7,9,9a-hexahydro-1H-pyrazino[2,1-c][1,4]oxazin-8-yl]-(2-chloro-3-methoxy-phenyl)methanone]"

# Further lines, the molecule ahead of its results:
row,SMILES,IC50
1,"N#Cc1n[nH]cc1-c1cccc(C(=O)N2CCN3C[C@@](O)(c4ccc(C(F)(F)F)nc4)OC[C@@H]3C2)c1Cl [Example 80, 4-[3-[(3R,9aS)-3-hydroxy-3-[6-(trifluoromethyl)-3-pyridyl]-1,4,6,7,9,9a-hexahydropyrazino[2,1-c][1,4]oxazine-8-carbonyl]-2-chloro-phenyl]-1H-pyrazole-3-carbonitrile]",0.0262 µM
2,"O=C(c1cccc(-c2c[nH]nc2F)c1)N1CCN2C[C@@](O)(c3ccc(C(F)(F)F)nc3)OC[C@@H]2C1 [Example 81, [(3R,9aS)-3-hydroxy-3-[6-(trifluoromethyl)-3-pyridyl]-1,4,6,7,9,9a-hexahydropyrazino[2,1-c][1,4]oxazin-8-yl]-[3-(3-fluoro-1H-pyrazol-4-yl)phenyl]methanone]",0.0804 µM
3,"O=C(c1cccc(-c2cn[nH]c2)c1Cl)N1CCN2C[C@@](O)(c3ccc(C(F)(F)F)nc3)OC[C@@H]2C1 [Example 82, [(3R,9aS)-3-hydroxy-3-[6-(trifluoromethyl)-3-pyridyl]-1,4,6,7,9,9a-hexahydropyrazino[2,1-c][1,4]oxazin-8-yl]-[2-chloro-3-(1H-pyrazol-4-yl)phenyl]methanone]",0.0159 µM
4,"COc1cccc(C(=O)N2CCN3C[C@@H](c4cc(C)c(Cl)cn4)OC[C@@H]3C2)c1Cl [Example 83, (2-chloro-3-methoxyphenyl)((3S,9aS)-3-(5-chloro-4-methylpyridin-2-yl)hexahydropyrazino[2,1-c][1,4]oxazin-8(1H)-yl)methanone]",0.0944 µM
5,"COc1cccc(C(=O)N2CCN3C[C@H](c4cc(C)c(Cl)cn4)OC[C@@H]3C2)c1Cl [Example 84, (2-chloro-3-methoxyphenyl)((3R,9aS)-3-(5-chloro-4-methylpyridin-2-yl)hexahydropyrazino[2,1-c][1,4]oxazin-8(1H)-yl)methanone]",0.333 µM
6,"O=C(c1cccc(-c2c[nH]nc2F)c1Cl)N1CCN2C[C@@](O)(c3ccc(C(F)(F)F)cn3)OC[C@@H]2C1 [Example 85, [(3S,9aS)-3-hydroxy-3-[5-(trifluoromethyl)-2-pyridyl]-1,4,6,7,9,9a-hexahydropyrazino[2,1-c][1,4]oxazin-8-yl]-[2-chloro-3-(3-fluoro-1H-pyrazol-4-yl)phenyl]methanone]",0.0382 µM
